The assay concerns metastatic urothelial carcinoma (mUC) patients. The assay is described as follows: IMvigor210 single-arm phase II study of atezolizumab: response (RECIST v1.1) and overall survival. It is filed as in vivo, human. The protocol: Samples for this analysis were collected from IMvigor210, which was a single-arm phase II study investigating atezolizumab (1200 mg every 3 weeks (q3w)) in metastatic urothelial carcinoma (mUC) patients (Clinical Trial Identifier: NCT02108652). The primary endpoint of the trial was to achieve a partial response (PR) rate of over 10% (Response Evaluation Criteria In Solid Tumors (RECIST) v1.1). Patients who had failed previous platinum-based chemotherapy or previously untreated patients who were not eligible for platinum-based chemotherapy were eligible. The primary endpoint was met for both previously treated and untreated populations. It was a requirement for all patients to have tumor tissue taken in the 2 years prior to study entry. The tissues were initially used for PD-L1 analysis (SP142 antibody using the Ventana platform). PD-L1 positivity was defined as more that 5% of cells staining in the immune component of the tumor tissue. Additional tissue was used for exploratory analysis. All patients had measurable disease at baseline facilitating response assessment. RECIST v1.1 was used to assess response to therapy. Cross-sectional imaging was performed every 6 weeks. All patients gave […] for this analysis.
For investigation of the clinical activity of PD-L1 blockade with atezolizumab, 429 patients with advanced mUC were enrolled in a phase 2, single arm clinical trial (IMvigor210; NCT02108652). Objective response rate was assessed per RECIST v1.1 and served as a trial endpoint. […] Assessment of the association of PD-L1 expression on tumor-infiltrating immune cells (IC) on baseline tumors with response (objective response rate) was a co-primary endpoint. PD-L1 IC status was defined by the percentage of PD-L1-positive immune cells in the tumor microenvironment (TME): IC0 (<1%), IC1 (≥1% but <5%) and IC2+(≥5%).

Here are results for 1 substance from patent US11473151B2, “Diagnostic and therapeutic methods for cancer” (Genentech, Inc., priority 2017, dated 2022).

Entries after “also recorded” stand apart in the source; their conditions may differ.

In the case of “atezolizumab: anti-PD-L1 antibody (Genentech), CAS Registry Number 1422185-06-5, also known as MPDL3280A”, the “primary endpoint: partial response (PR) rate of over 10% (RECIST v1.1)” value (1200 mg q3w, previously treated and untreated mUC populations) is “met”. Further, the response rate runs as follows: (Lund genomically unstable (GU) subtype) 47.2%; (other Lund subtypes) 17.6%. Moreover, the “overall survival (OS) benefit” value is, setting by setting: (high PD-L1 IC scores (IC2/3) relative to IC0/1) “Improved OS benefit”; (high TMB relative to low TMB, median TMB as cutoff) “improved OS benefit”. Besides, for the setting “high TGF-β 2-gene signature (TGFB1, TGFBR2)”, the response entry is on record as “lack of response”. For the same substance, the “overall survival (OS)” value (patients with both high TMB and high PD-L1 IC scores) was “Improved OS”. In addition, the “complete response (CR) rate” value (tumors with high PD-L1 expression on IC (IC2+) versus other IC levels) is listed as “significantly higher complete response (CR) rate; also recorded: highest CR rate”.
